Measurements taken from patent publication US7135307B2, “Gamma three protease” (Merck & Co., Inc., priority 2001, dated 2006).
Where a SMILES comes first, the peptide text is derived from it. [ ]: non-standard residue; d: D form. The star is where a group is joined. Sta = CC(C)C[C@H](N)[C@@H](O)CC(=O)O; Isovaleryl = CC(C)CC(=O)*

What was measured:
Type in all cases: biochemical
[1] = tested on: γ3 protease; assay: Inhibition of γ3 protease production of Aβ peptides by pepstatin A, ECL detection
Excerpt: (§1) Another method for product detection, employing electrochemiluminescence with a capture antibody and an antibody specific for either Aβ1-40 or Aβ1-42, is described in Example 6 below.
(§2) Aβ peptides were detected using a sandwich assay employing an antibody to capture the peptide and an antibody to detect the presence of the peptide. Detection was achieved by using electrochemiluminescence (ECL) (Yang et al., 1994, Bio/Technology 12:193–194; Khorkova et al., 1998, J. Neurosci. Meth. 82:159–166) and an Origen 1.5 Analyzer (Igen Inc., Gaithersburg, Md.).
(§3) Capture was performed using the 4G8 murine monoclonal antibody (Senetek PLC, Maryland Heights, Mo.). The 4G8 murine monoclonal antibody binds an epitope in the Aβ peptide (about amino acids 18–21 of SEQ.ID.NO.:3) that is immediately distal to the α-secretase cleavage site. The 4G8 monoclonal antibody was biotinylated with Biotin-LC-Sulfo-NHS-Ester (Igen Inc., Gaithersburg, Md.).
Detection was achieved using the G2-10 murine monoclonal antibody and the FCA3542 rabbit antibody. The G2-10 murine monoclonal antibody (provided by K. Beyreuther, University of Heidelberg, Germany) binds the C-terminus that is exposed after γ3 protease-mediated cleavage to generate amino acid 40 of the Aβ1-40 peptide. (Ida et al., 1996, J. Biol. Chem. 271:22908–22914). The FCA3542 rabbit antibody (provided by F. Checler, IPMC du CNRS, Valbonne, France) binds the C-terminus that is exposed after γ3 protease-mediated cleavage to generate amino acid 42 of the Aβ1-42 peptide. (Barelli et al., 1997, Mol. Med. 3:695–707.)
The G2-10 and FCA3542 antibodies were ruthenylated with TAG-NHS Ester (Igen Inc., Gaithersburg, Md.). Aβ(x-40) was detected with biotinylated 4G8 and ruthenylated G2-10. Aβ(x-42) was detected with biotinylated 4G8 and ruthenylated FCA3542.

[2] = tested on: γ-secretase activity associated with presenilin-1/presenilin-2; assay: γ-secretase activity in HeLa S3 cell membranes, C100Flag substrate, ECL detection of Aβ
[3] = tested on: γ3 protease; assay: γ3 protease activity in HeLa S3 cell membranes, C100Flag substrate, ECL detection of Aβ
Excerpt: The source of γ3 protease was a membrane preparation from HeLa S3 cells prepared as in Example 9. The production of the γ3 protease substrate and the conditions for cleavage are described in Example 10. The procedure for determining whether the substrate had been cleaved by γ3 protease was as in Example 6.
as §2, §3
Detection was achieved using the G2-10 murine monoclonal antibody and the FCA3542 rabbit antibody. […]
The G2-10 and FCA3542 antibodies were ruthenylated with TAG-NHS Ester (Igen Inc., Gaithersburg, Md.). Aβ(x-40) was detected with biotinylated 4G8 and ruthenylated G2-10. Aβ(x-42) was detected with biotinylated 4G8 and ruthenylated FCA3542. […]

[4] = tested on: γ-secretase activity associated with presenilins 1 and 2; assay: γ-secretase activity in ES-PBD18 membranes (wild-type mouse embryonic stem cells), generation of Aβ1-40 and Aβ1-42; settings: 1 μM inhibitor, FIG. 2A, 2B
Method: The presence of γ3 protease activity having a pH optimum of about 6 is clearly seen. […] Again, the presence of γ3 protease activity having a pH optimum of about 6 is clearly seen. The source of γ3 protease was ES-PBD18 membranes. ES-PBD18 membranes were prepared from wild-type mouse embryonic stem cells according to the procedure of Example 11.
as §1, §2
• 1. […]

SMILES | inhibition of production of Aβ1-40 by γ3 protease ([1]; FIG. 3A) | inhibition of production of Aβ1-42 by γ3 protease ([1]; FIG. 3B) | inhibition of γ3 protease activity ([1]; general statement (aspartyl class protease)) | inhibition of the activity of the γ secretase complex containing presenilin-1 or presenilin-2 ([2]; general statement) | block of γ-secretase activity ([2]; pH 7.0 (pH optimum for presenilin-1/presenilin-2 associated γ-secretase), HeLa S3 membranes, FIG. 1) | susceptibility of γ3 protease activity to inhibition ([3]; general statement) | γ-secretase-type activity remaining in the presence of inhibitor (γ3 protease) ([3]; pH 6.0 (pH optimum for γ3 protease), HeLa S3 membranes, FIG. 1) | inhibition of γ-secretase activity associated with presenilins 1 and 2 [4]
CC(C)CC(=O)N[C@H](C(=O)N[C@H](C(=O)N[C@@H](CC(C)C)[C@@H](O)CC(=O)N[C@@H](C)C(=O)N[C@@H](CC(C)C)[C@@H](O)CC(=O)O)C(C)C)C(C)C [pepstatin A] (Isovaleryl-VV[Sta]A[Sta]-OH) | inhibits | inhibits | inhibited | – | – | – | – | –
CC(C)C[C@H](NC(=O)[C@H](Cc1ccccc1)C[C@@H](O)[C@H](Cc1ccccc1)NC(=O)OC(C)(C)C)C(=O)N[C@@H](Cc1ccccc1)C(N)=O [L-685,458, {1S-Benzyl-4-R-[1-(1S-carbamoyl-2-phenylethylcarbamoyl)-1S-3-methylbutylcarbamoyl]-2R-hydroxy-5-phenylpentyl}carbamic acid tert-butyl ester] | – | – | – | inhibited | essentially completely block | not susceptible to inhibition | significant γ-secretase activity remains | essentially completely inhibit
